{"source": "patent US6100258A", "about": "“Aromatic amine compounds that antagonize the pain enhancing effects of prostaglandins” (Zeneca Limited, priority 1995, dated 2000)", "origin": "cited, not measured here", "data": [{"smiles": "CC(=O)NNC(=O)N1Cc2ccccc2Oc2ccc(Cl)cc21", "note": "[SC-19220]", "values": [{"measurement": "block of the effect of PGE2", "setting": "dog fundus", "result": "blocks the effect of PGE2"}, {"measurement": "block of the effect of PGE2", "setting": "guinea pig ileum", "result": "blocks the effect of PGE2"}]}]}
